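Values below derive from 48-hour exposures of cells grown in 96-well plates, with endpoints linearly interpolated between the two concentrations bracketing the appropriate inhibition level. Here, GI50 denotes the concentration required for 50% inhibition of growth.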 Calls of active or inactive are those of the source. No stated cut-off is given here; in the data, active = GI50 up to about 1.1 µM and inactive = higher.

Common to all, as to assay: growth of human tumour cells (NCI), 48 h
Assay [1] relates to M14.
For assay [2], the system named is A498.
Assay [3] has as its system SF-539.
Assay [4] relates to COLO 205.
The subject of assay [5] is KM-20L2.
Assay [6] concerns NCI-H460.
The subject of assay [7] is NCI-H23.
Assay [8] relates to K562.
For assay [9], the system named is CCRF-CEM.
The test system of assay [10] is HCT-116.
Assay [11] has as its system LOX IMVI.
In assay [12] the test system is SK-MEL-5.
The test system of assay [13] is UO-31.
The subject of assay [14] is SNB-19.
The test system of assay [15] is Malme-3M.
The subject of assay [16] is MOLT-4.
The test system of assay [17] is OVCAR-5.

Take `COC(=O)CC1NC(=O)C1C(C)(OC)OC` (stereo not drawn): the GI50 in assay [1], in [2], in assay [3], in assay [4], in assay [5] and in assay [6] was > 100 µM (inactive) in each case. In addition, the GI50 in [7], in [8], in assay [9], in [10], in [11] and in assay [12] was > 100 µM (inactive) each time. Further, the GI50 in assay [13], in assay [14], in [15] and in assay [16] was > 100 µM (inactive) throughout.

`CC(=O)OC1COC(Nc2ccc(C(C)=O)cc2)C(OC(C)=O)C1OC(C)=O` (stereo not drawn): the GI50 in [1], in assay [2], in assay [3], in assay [4], in assay [5] and in assay [6] was > 100 µM (inactive) each time. Further, the GI50 in assay [7], in [8], in assay [9], in assay [11], in [12] and in assay [13] was > 100 µM (inactive) in each case. The GI50 in assay [14], in assay [15] and in [16] was > 100 µM (inactive) each time.

For the compound `Cc1ccc(S(=O)(=O)OCCn2cnc3nc(NC(=O)c4ccccc4)[nH]c(=O)c32)cc1`, the GI50 in assay [1], in assay [2], in assay [3], in assay [4], in [5] and in assay [6] was > 100 µM (inactive) throughout. The GI50 in [8], in [17], in assay [9], in assay [10], in [11] and in assay [12] was > 100 µM (inactive) throughout. Further, the GI50 in assay [13], in [14] and in assay [15] was > 100 µM (inactive) in each case.

With `O=C(NC(=O)c1cn(CCN2CCN(C(=O)NCCCCCCNC(=O)N3CCN(CCn4cc(C(=O)NC(=O)OCc5ccccc5)c(=O)[nH]c4=O)CC3)CC2)c(=O)[nH]c1=O)OCc1ccccc1`, the GI50 in [1], in [3], in assay [4], in assay [5], in assay [6] and in assay [7] was > 100 µM (inactive) each time. In addition, the GI50 in assay [8], in [17], in assay [9], in [10], in assay [11] and in [12] was > 100 µM (inactive) in each case. Besides, the GI50 in assay [13], in assay [14], in assay [15] and in [16] was > 100 µM (inactive) each time.

For the compound `COC1OC2COC(c3ccccc3)OC2C(O)C1Br` (stereo not drawn), the GI50 in [1] was > 100 µM (inactive); in assay [2], > 100 µM (inactive); in [3], > 100 µM (inactive); in [4] it was > 100 µM (inactive); in assay [5], > 10 µM (inactive); in assay [6] it was > 100 µM (inactive). In addition, the GI50 in [7], in [8], in [17], in [9], in assay [10] and in [11] was > 100 µM (inactive) in each case. In addition, the GI50 in [12], in assay [14], in [15] and in assay [16] was > 100 µM (inactive) in each case.

Turning to `O=C1c2ccccc2C(=O)N1C/C=C/CO`, the GI50 in [1], in assay [2], in assay [3], in assay [4], in [5] and in [6] was > 100 µM (inactive) in each case. The GI50 in assay [8], in [9], in [10], in assay [12], in [13] and in assay [14] was > 100 µM (inactive) each time. Moreover, the GI50 in [15] and in assay [16] was > 100 µM (inactive) throughout.

In the case of `C1=CC=C2NCCC/N=C3/C=CC=CC=C3NCCC/N=C\2C=C1`, the GI50 in [1], in assay [2], in [3], in [4], in assay [5] and in assay [6] was > 100 µM (inactive) in each case. Further, the GI50 in assay [8], in assay [17], in [9], in assay [10], in assay [11] and in assay [12] was > 100 µM (inactive) throughout. The GI50 in assay [13], in [14] and in assay [16] was > 100 µM (inactive) throughout.

Take `C=C(C=O)CCCC(C)[C@@H]1CCC23CC12CCC1[C@@]2(C)CCC(OC(C)=O)C(C)(C)C2CC(OC2OC(COC(C)=O)C(O)C(O)C2O)[C@]13C` (stereo partly drawn): the GI50 in assay [1] was 1.47 µM (inactive); in assay [2] it was 6.85 µM (inactive); in assay [3], 5.7 µM (inactive); in [4] it was 7.82 µM (inactive); in assay [5] it was 6.5 µM (inactive); in [6] it was 7.69 µM (inactive). The GI50 in assay [7] is 7.82 µM (inactive); in assay [8] it was 1.44 µM (inactive); in [17], 5.98 µM (inactive); in [9] it was 1.03 µM (active); in assay [10] it was 0.809 µM (active); in assay [11], 0.807 µM (active). For the same compound, the GI50 in assay [12] is 5.58 µM (inactive); in assay [13] it was 5.42 µM (inactive); in assay [14], 7.1 µM (inactive); in assay [15] it was 2 µM (inactive); in [16], 0.861 µM (active).

Take `CN1N=C2c3ccccc3CC[C@H]2C1c1cccc(O)c1` (stereo partly drawn): the GI50 was > 100 µM (inactive) in assay [1]; > 100 µM (inactive) in assay [2]; > 100 µM (inactive) in [3]; > 100 µM (inactive) in assay [4]; > 100 µM (inactive) in [5]; 81.1 µM (inactive) in [6]. For the same compound, the GI50 in [7] is > 100 µM (inactive); in assay [8], 74.1 µM (inactive); in assay [17], > 100 µM (inactive); in assay [9], > 100 µM (inactive); in assay [10] it was 3.05 µM (inactive); in assay [11] it was > 100 µM (inactive). In addition, the GI50 in assay [13] is 32.4 µM (inactive); in assay [14] it was > 100 µM (inactive); in [15] it was 0.463 µM (active); in [16], > 100 µM (inactive).

With `COC1CC2C3/C(=N/Nc4ccc([N+](=O)[O-])cc4[N+](=O)[O-])CCC2(C)C3C1` (stereo not drawn), the GI50 in assay [1] was > 10 µM (inactive); in assay [2], > 10 µM (inactive); in assay [3] it was > 10 µM (inactive); in assay [4] it was > 10 µM (inactive); in assay [5] it was > 10 µM (inactive); in assay [6] it was > 100 µM (inactive). The GI50 in assay [7] is > 10 µM (inactive); in assay [8], 75.5 µM (inactive); in assay [17], > 10 µM (inactive); in assay [10] it was > 100 µM (inactive); in assay [11] it was > 10 µM (inactive); in [12], > 10 µM (inactive). In addition, the GI50 was > 10 µM (inactive) in assay [13], > 10 µM (inactive) in assay [14], > 10 µM (inactive) in [15] and 42.3 µM (inactive) in assay [16].

For the compound `CCCCCCCC[N+](C)(C)Cc1ccc(C[N+](C)(C)CCCCCCCC)cc1`, the GI50 was 85.9 µM (inactive) in assay [1]; 38.1 µM (inactive) in assay [2]; 1.76 µM (inactive) in assay [4]; 7.71 µM (inactive) in [5]; 28.6 µM (inactive) in assay [6]; 4.55 µM (inactive) in assay [7]. Further, the GI50 was 28.4 µM (inactive) in assay [8]; > 100 µM (inactive) in assay [17]; > 100 µM (inactive) in assay [9]; > 100 µM (inactive) in assay [10]; 84.5 µM (inactive) in [11]; 36.7 µM (inactive) in [12]. For the same compound, the GI50 in assay [13] is > 100 µM (inactive); in [14], 24.6 µM (inactive); in assay [15], 95.3 µM (inactive); in [16] it was 43.9 µM (inactive).

`O=C(O)CCCNS(=O)(=O)c1ccccc1`: the GI50 in [1], in assay [2], in assay [3], in assay [4], in assay [5] and in assay [6] was > 100 µM (inactive) in each case. Besides, the GI50 in assay [7], in assay [8], in assay [17], in [9], in [11] and in assay [12] was > 100 µM (inactive) throughout. The GI50 in assay [13], in [14], in assay [15] and in assay [16] was > 100 µM (inactive) throughout.

(Values after ChEMBL document CHEMBL1201862, “PubChem BioAssay data set” (2004).)
